Assay results from ChEMBL document CHEMBL4257513 (Medchemcomm, 2018).
Active and inactive are the calls of the source. The rule behind the calls is not given here.

Columns and labels:
[1] = target: T1, Tyrosinase (Agaricus bisporus) (UniProt O42713); assay: Inhibition of mushroom tyrosinase at 100 uM using L-dopa as substrate preincubated for 10 mins followed by substrate addition and measured for 1 min by spectrophotometric method relative to control
T1 sequence (whole entry): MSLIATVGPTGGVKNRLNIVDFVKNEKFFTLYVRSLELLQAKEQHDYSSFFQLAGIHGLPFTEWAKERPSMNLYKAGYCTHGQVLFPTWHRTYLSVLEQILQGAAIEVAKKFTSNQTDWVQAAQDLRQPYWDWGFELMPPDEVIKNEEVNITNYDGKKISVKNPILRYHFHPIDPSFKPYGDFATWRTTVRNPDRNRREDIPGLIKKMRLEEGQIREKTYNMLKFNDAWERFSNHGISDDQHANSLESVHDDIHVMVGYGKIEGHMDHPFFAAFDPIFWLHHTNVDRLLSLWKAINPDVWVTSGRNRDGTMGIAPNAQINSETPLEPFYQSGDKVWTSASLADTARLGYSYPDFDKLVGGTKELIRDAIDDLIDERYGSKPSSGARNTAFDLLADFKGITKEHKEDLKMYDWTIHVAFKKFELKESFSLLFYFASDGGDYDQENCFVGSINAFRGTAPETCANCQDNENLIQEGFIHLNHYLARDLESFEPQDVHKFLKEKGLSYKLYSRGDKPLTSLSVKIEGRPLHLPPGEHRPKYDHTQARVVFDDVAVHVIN

Tyrosinase [2] = target: T2, Tyrosinase (Agaricus bisporus, UniProt O42713)
T2 sequence (O42713 whole entry): T1 sequence (whole entry)
Description: Inhibition of mushroom tyrosinase using L-dopa as substrate preincubated for 10 mins followed by substrate addition and measured for 1 min by spectrophotometric method

[3] = target: T1, Tyrosinase (Agaricus bisporus); assay: Potency index, ratio of kojic acid IC50 to test compound IC50 for mushroom tyrosinase
[4] = target: T1, Tyrosinase (Agaricus bisporus); assay: Reversible inhibition of mushroom tyrosinase at 5 to 20 uM using L-dopa as substrate preincubated for 10 mins followed by substrate addition and measured for 1 min by spectrophotometric method
Tyrosinase [5] = target: T2, Tyrosinase; assay: Mixed-type inhibition of mushroom tyrosinase using varying levels of L-dopa as substrate preincubated for 10 mins followed by substrate addition and measured for 1 min by Lineweaver-burk plot analysis
Tyrosinase [6] = target: T2, Tyrosinase; assay: Mixed-type inhibition of mushroom tyrosinase assessed as inhibitory constant for enzyme-substrate complex using varying levels of L-dopa as substrate preincubated for 10 mins followed by substrate addition and measured for 1 min by Lineweaver-burk plot analysis
[7] = target: T1, Tyrosinase (Agaricus bisporus); assay: Reversible inhibition of mushroom tyrosinase at 2 to 20 uM using L-dopa as substrate preincubated for 10 mins followed by substrate addition and measured for 1 min by spectrophotometric method
[8] = target: T1, Tyrosinase (Agaricus bisporus); assay: Reversible inhibition of mushroom tyrosinase up to 5 uM using L-dopa as substrate preincubated for 10 mins followed by substrate addition and measured for 1 min by spectrophotometric method
Tyrosinase [9] = target: T2, Tyrosinase; assay: Noncompetitive inhibition of mushroom tyrosinase using varying levels of L-dopa as substrate preincubated for 10 mins followed by substrate addition and measured for 1 min by Lineweaver-burk plot analysis
Tyrosinase [10] = target: T2, Tyrosinase; assay: Noncompetitive inhibition of mushroom tyrosinase assessed as inhibitory constant for enzyme-substrate complex using varying levels of L-dopa as substrate preincubated for 10 mins followed by substrate addition and measured for 1 min by Lineweaver-burk plot analysis

Structure (SMILES)	inhibition [1] [%]	IC50 (Tyrosinase [2]) [µM]	further results
COc1ccc(C(C)=O)c(OC(=O)/C=C/c2ccccc2)c1	< 40	> 100	–
Cc1ccc(C(C)C)c(OC(=O)/C=C/c2ccc(F)cc2)c1	< 40	> 100	–
COc1cc(/C=C/C(=O)Oc2cc(C)ccc2C(C)C)ccc1O	< 40	> 100	–
O=C(O)/C=C/c1ccc(O)cc1 [COUMARIC ACID]	–	4710	–
Cc1ccc(C(C)C)c(OC(=O)/C=C/c2ccc(Cl)cc2)c1	< 40	> 100	–
COc1ccc(C(C)=O)c(OC(=O)/C=C/c2ccc(O)c(OC)c2)c1	< 40	> 100	–
COc1ccc(/C=C/C(=O)Oc2cc(C)ccc2C(C)C)cc1	< 40	> 100	–
Cc1ccc(/C=C/C(=O)Oc2cc(C)ccc2C(C)C)cc1	< 40	> 100	–
Cc1ccc(C(C)C)c(OC(=O)/C=C/c2ccccc2)c1	< 40	> 100	–

Further compounds by falling IC50 (Tyrosinase [2]), results first:

inhibition [1] [%]	IC50 (Tyrosinase [2]) [µM]	Structure (SMILES)	further results
> 40	164	COc1ccc(C(C)=O)c(OC(=O)/C=C/c2ccc(Cl)cc2)c1	–
–	121	COc1ccc(C(C)=O)c(O)c1 [PAEONOL]	–
> 40	77.4	COc1ccc(/C=C/C(=O)Oc2cc(OC)ccc2C(C)=O)cc1	–
> 40	39	COc1ccc(C(C)=O)c(OC(=O)/C=C/c2ccc(C)cc2)c1	–
> 40	10.6	Cc1ccc(C(C)C)c(OC(=O)/C=C/c2ccc(O)cc2)c1	Ratio IC50 [3]: 3; inhibition [4]: Active; Ki (Tyrosinase [5]): 8 µM; Ki (Tyrosinase [6]): 72.2 µM
> 40	8.3	COc1ccc(C(C)=O)c(OC(=O)/C=C/c2ccc(F)cc2)c1	inhibition [7]: Active; Ki (Tyrosinase [5]): 10 µM; Ki (Tyrosinase [6]): 35.6 µM
> 40	2	COc1ccc(C(C)=O)c(OC(=O)/C=C/c2ccc(O)cc2)c1	Ratio IC50 [3]: 16; inhibition [8]: Active; Ki (Tyrosinase [9]): 3.8 µM; Ki (Tyrosinase [10]): 3.8 µM
